Reference: patent US20100272680A1, “Piperidinyl Cyclic Amido Antiviral Agents” (priority 2009, published 2010)

Legend:
HCV Genotype 1A Replicon = assay: Replicon assay, genotype 1a subgenomic replicon, luciferase readout; format: cell-based; details: Hepatitis C virus, 48 h, Table 3; luciferase activity after 48 hours
Outline: (§1)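 EC50 values came from four-parameter logistic fits of 10-point dose responses (3–4-fold steps, final 0.03–50 μM, 0.5–1% DMSO), normalized against no-compound and no-cell controls. Firefly luciferase was read 48 h after plating 0.5×10^4 replicon cells/well, 1b ET or 1a Apath-derived line.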

HCV Genotype 1B Replicon = assay: Replicon assay, genotype 1b subgenomic replicon (ET cell line), luciferase readout; format: cell-based; details: Hepatitis C virus, 48 h, Table 3; luciferase activity after 48 hours
Outline: as §1

## N#Cc1c(C(=O)N2CCC(N3CCOC3=O)CC2)nc2c(C(F)(F)F)cc(C3CC3)cn12 [Compound 162, 6-cyclopropyl-2-{[4-(2-oxo-1,3-oxazolidin-3-yl)-1-piperidinyl]carbonyl}-8-(trifluoromethyl)imidazo[1,2-a]pyridine-3-carbonitrile]
HCV Genotype 1A Replicon
  EC50: 10 nM
HCV Genotype 1B Replicon
  EC50: 10 nM

## O=C(c1nc2c(C(F)(F)F)cc(C3CC3)cn2c1Cl)N1CCC(N2CC(O)CC2=O)CC1 (stereo not shown) [Compound 163, 1-(1-{[3-chloro-6-cyclopropyl-8-(trifluoromethyl)imidazo[1,2-a]pyridin-2-yl]carbonyl}-4-piperidinyl)-4-hydroxy-2-pyrrolidinone]
HCV Genotype 1A Replicon
  EC50: 380 nM
HCV Genotype 1B Replicon
  EC50: 80 nM

## Cc1c(C(=O)N2CCC(N3CCOC3=O)CC2)nc2c(C(F)(F)F)cc(-c3ccoc3)cn12 [Compound 164, 3-(1-{[6-(3-furanyl)-3-methyl-8-(trifluoromethyl)imidazo[1,2-a]pyridin-2-yl]carbonyl}-4-piperidinyl)-1,3-oxazolidin-2-one]
HCV Genotype 1A Replicon
  EC50: 30 nM
HCV Genotype 1B Replicon
  EC50: 100 nM

## CC(C)c1c(C(=O)N2CCC(N3CCOC3=O)CC2)nc2c(C(F)(F)F)cc(-c3ccoc3)cn12 [Compound 165, 3-(1-{[6-(3-furanyl)-3-(1-methylethyl)-8-(trifluoromethyl)imidazo[1,2-a]pyridin-2-yl]carbonyl}-4-piperidinyl)-1,3-oxazolidin-2-one]
HCV Genotype 1A Replicon
  EC50: ≥ 5010 nM
HCV Genotype 1B Replicon
  EC50: ≥ 5010 nM

## O=C(c1nc2c(C(F)(F)F)cc(-c3ccoc3)cn2c1CO)N1CCC(N2CCOC2=O)CC1 [Compound 166, 3-(1-{[6-(3-furanyl)-3-(hydroxymethyl)-8-(trifluoromethyl)imidazo[1,2-a]pyridin-2-yl]carbonyl}-4-piperidinyl)-1,3-oxazolidin-2-one]
HCV Genotype 1A Replicon
  EC50: 920 nM
HCV Genotype 1B Replicon
  EC50: 2000 nM

## O=C(c1nc2c(C(F)(F)F)cc(-c3cn[nH]c3)cn2c1Cl)N1CCC(N2C(=O)CCC2=O)CC1 [Compound 167, 1-(1-{[3-chloro-6-(1H-pyrazol-4-yl)-8-(trifluoromethyl)imidazo[1,2-a]pyridin-2-yl]carbonyl}-4-piperidinyl)-2,5-pyrrolidinedione]
HCV Genotype 1A Replicon
  EC50: 630 nM
HCV Genotype 1B Replicon
  EC50: 520 nM

## O=C(c1nc2c(C(F)(F)F)cc(-c3ccoc3)cn2c1Cl)N1CCC(N2C(=O)CCC2=O)CC1 [Compound 168, 1-(1-{[3-chloro-6-(3-furanyl)-8-(trifluoromethyl)imidazo[1,2-a]pyridin-2-yl]carbonyl}-4-piperidinyl)-2,5-pyrrolidinedione]
HCV Genotype 1A Replicon
  EC50: 100 nM
HCV Genotype 1B Replicon
  EC50: 70 nM

## O=C(c1nc2c(C(F)(F)F)cc(-c3ccoc3)cn2c1Cl)N1CCC(N2CCNC2=O)CC1 [Compound 169, 1-(1-{[3-chloro-6-(3-furanyl)-8-(trifluoromethyl)imidazo[1,2-a]pyridin-2-yl]carbonyl}-4-piperidinyl)-2-imidazolidinone]
HCV Genotype 1A Replicon
  EC50: 1880 nM
HCV Genotype 1B Replicon
  EC50: 160 nM

## O=C(c1nc2c(C(F)(F)F)cc(-c3cn[nH]c3)cn2c1Cl)N1CCC(N2CCNC2=O)CC1 [Compound 170, 1-(1-{[3-chloro-6-(1H-pyrazol-4-yl)-8-(trifluoromethyl)imidazo[1,2-a]pyridin-2-yl]carbonyl}-4-piperidinyl)-2-imidazolidinone]
HCV Genotype 1A Replicon
  EC50: 8810 nM
HCV Genotype 1B Replicon
  EC50: 1320 nM

## O=C1CN(C2CCN(C(=O)c3nc4c(C(F)(F)F)cc(-c5ccoc5)cn4c3Cl)CC2)C(=O)N1 [Compound 171, 1-(1-{[3-chloro-6-(3-furanyl)-8-(trifluoromethyl)imidazo[1,2-a]pyridin-2-yl]carbonyl}-4-piperidinyl)-2,4-imidazolidinedione]
HCV Genotype 1A Replicon
  EC50: 810 nM
HCV Genotype 1B Replicon
  EC50: 580 nM

## O=C1CN(C2CCN(C(=O)c3nc4c(C(F)(F)F)cc(-c5cn[nH]c5)cn4c3Cl)CC2)C(=O)N1 [Compound 172, 1-(1-{[3-chloro-6-(1H-pyrazol-4-yl)-8-(trifluoromethyl)imidazo[1,2-a]pyridin-2-yl]carbonyl}-4-piperidinyl)-2,4-imidazolidinedione]
HCV Genotype 1A Replicon
  EC50: 3210 nM
HCV Genotype 1B Replicon
  EC50: 3760 nM

## CN1CCN(C2CCN(C(=O)c3nc4c(C(F)(F)F)cc(-c5ccoc5)cn4c3Cl)CC2)C1=O [Compound 173, 1-(1-{[3-chloro-6-(3-furanyl)-8-(trifluoromethyl)imidazo[1,2-a]pyridin-2-yl]carbonyl}-4-piperidinyl)-3-methyl-2-imidazolidinone]
HCV Genotype 1A Replicon
  EC50: 750 nM
HCV Genotype 1B Replicon
  EC50: 480 nM

## O=C(c1nc2c(C(F)(F)F)cc(-c3cn[nH]c3)cn2c1Cl)N1CCC(N2C(=O)CNC2=O)CC1 [Compound 174, 3-(1-{[3-chloro-6-(1H-pyrazol-4-yl)-8-(trifluoromethyl)imidazo[1,2-a]pyridin-2-yl]carbonyl}-4-piperidinyl)-2,4-imidazolidinedione]
HCV Genotype 1A Replicon
  EC50: 25100 nM
HCV Genotype 1B Replicon
  EC50: 2290 nM

## O=C(c1nc2c(C(F)(F)F)cc(-c3ccoc3)cn2c1Cl)N1CCC(N2C(=O)CNC2=O)CC1 [Compound 175, 3-(1-{[3-chloro-6-(3-furanyl)-8-(trifluoromethyl)imidazo[1,2-a]pyridin-2-yl]carbonyl}-4-piperidinyl)-2,4-imidazolidinedione]
HCV Genotype 1A Replicon
  EC50: 2570 nM
HCV Genotype 1B Replicon
  EC50: 140 nM

## CC1(C)COC(=O)N1C1CCN(C(=O)c2nc3c(C(F)(F)F)cc(-c4ccoc4)cn3c2Cl)CC1 [Compound 176, 3-(1-{[3-chloro-6-(3-furanyl)-8-(trifluoromethyl)imidazo[1,2-a]pyridin-2-yl]carbonyl}-4-piperidinyl)-4,4-dimethyl-1,3-oxazolidin-2-one]
HCV Genotype 1A Replicon
  EC50: ≥ 50100 nM
HCV Genotype 1B Replicon
  EC50: ≥ 50100 nM

## CC1(C)COC(=O)N1C1CCN(C(=O)c2nc3c(C(F)(F)F)cc(-c4cn[nH]c4)cn3c2Cl)CC1 [Compound 177, 3-(1-{[3-chloro-6-(1H-pyrazol-4-yl)-8-(trifluoromethyl)imidazo[1,2-a]pyridin-2-yl]carbonyl}-4-piperidinyl)-4,4-dimethyl-1,3-oxazolidin-2-one]
HCV Genotype 1A Replicon
  EC50: ≥ 50100 nM
HCV Genotype 1B Replicon
  EC50: ≥ 50100 nM

## O=C(c1nc2c(C(F)(F)F)cc(-c3ccoc3)cn2c1Cl)N1CCC(N2C(=O)COC2=O)CC1 [Compound 178, 3-(1-{[3-chloro-6-(3-furanyl)-8-(trifluoromethyl)imidazo[1,2-a]pyridin-2-yl]carbonyl}-4-piperidinyl)-1,3-oxazolidine-2,4-dione]
HCV Genotype 1A Replicon
  EC50: 20 nM
HCV Genotype 1B Replicon
  EC50: 30 nM

## O=C(c1nc2c(C(F)(F)F)cc(-c3cn[nH]c3)cn2c1Cl)N1CCC(N2C(=O)COC2=O)CC1 [Compound 179, 3-(1-{[3-chloro-6-(1H-pyrazol-4-yl)-8-(trifluoromethyl)imidazo[1,2-a]pyridin-2-yl]carbonyl}-4-piperidinyl)-1,3-oxazolidine-2,4-dione]
HCV Genotype 1A Replicon
  EC50: 60 nM
HCV Genotype 1B Replicon
  EC50: 360 nM

## C[C@H]1COC(=O)N1C1CCN(C(=O)c2nc3c(C(F)(F)F)cc(-c4ccoc4)cn3c2Cl)CC1 [Compound 180, (4S)-3-(1-{[3-chloro-6-(3-furanyl)-8-(trifluoromethyl)imidazo[1,2-a]pyridin-2-yl]carbonyl}-4-piperidinyl)-4-methyl-1,3-oxazolidin-2-one]
HCV Genotype 1A Replicon
  EC50: 1620 nM
HCV Genotype 1B Replicon
  EC50: 2850 nM

## CC1(C)CN(C2CCN(C(=O)c3nc4c(C(F)(F)F)cc(-c5ccoc5)cn4c3Cl)CC2)C(=O)O1 [Compound 181, 3-(1-{[3-chloro-6-(3-furanyl)-8-(trifluoromethyl)imidazo[1,2-a]pyridin-2-yl]carbonyl}-4-piperidinyl)-5,5-dimethyl-1,3-oxazolidin-2-one]
HCV Genotype 1A Replicon
  EC50: 6530 nM
HCV Genotype 1B Replicon
  EC50: 7080 nM
